Results from BindingDB's records for patent WO2025049746 (Eikon Therapeutics, 2025).

Legend:
[1] = target: Bifunctional 3'-5' exonuclease/ATP-dependent helicase WRN (Homo sapiens, UniProt Q14191); assay: ADP-Glo Kinase Assay
Experimental: ATPase activity was measured using the ADP-Glo Kinase Assay following the manufacturers recommended protocol.

[2] = target: T1, Bifunctional 3'-5' exonuclease/ATP-dependent helicase WRN [480-1251] (UniProt Q14191); assay: Biochemical Activity Assays
T1 construct: 480-1251
T1 sequence (Q14191 480-1251): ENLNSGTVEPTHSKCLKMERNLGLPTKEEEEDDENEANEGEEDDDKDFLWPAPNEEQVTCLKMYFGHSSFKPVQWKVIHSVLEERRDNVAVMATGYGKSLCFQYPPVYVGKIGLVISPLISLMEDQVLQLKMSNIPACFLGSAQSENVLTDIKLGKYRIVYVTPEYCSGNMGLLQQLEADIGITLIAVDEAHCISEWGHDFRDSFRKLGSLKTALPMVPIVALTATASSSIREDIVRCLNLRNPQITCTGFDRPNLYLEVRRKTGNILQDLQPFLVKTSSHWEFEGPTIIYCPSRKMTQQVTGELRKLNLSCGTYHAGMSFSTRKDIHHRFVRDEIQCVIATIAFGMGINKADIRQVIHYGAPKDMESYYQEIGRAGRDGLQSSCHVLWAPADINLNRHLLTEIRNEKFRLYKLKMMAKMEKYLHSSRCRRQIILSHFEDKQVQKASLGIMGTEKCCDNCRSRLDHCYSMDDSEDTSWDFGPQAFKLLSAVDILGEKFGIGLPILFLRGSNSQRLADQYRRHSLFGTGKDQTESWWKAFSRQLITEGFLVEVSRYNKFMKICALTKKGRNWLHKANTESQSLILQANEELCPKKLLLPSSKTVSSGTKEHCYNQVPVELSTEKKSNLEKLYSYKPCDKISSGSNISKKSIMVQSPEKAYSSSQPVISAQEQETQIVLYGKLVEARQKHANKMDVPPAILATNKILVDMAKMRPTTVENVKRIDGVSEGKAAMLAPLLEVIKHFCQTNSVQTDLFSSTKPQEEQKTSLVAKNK

Chain of Bifunctional 3'-5' exonuclease/ATP-dependent helicase WRN (Q14191 whole entry): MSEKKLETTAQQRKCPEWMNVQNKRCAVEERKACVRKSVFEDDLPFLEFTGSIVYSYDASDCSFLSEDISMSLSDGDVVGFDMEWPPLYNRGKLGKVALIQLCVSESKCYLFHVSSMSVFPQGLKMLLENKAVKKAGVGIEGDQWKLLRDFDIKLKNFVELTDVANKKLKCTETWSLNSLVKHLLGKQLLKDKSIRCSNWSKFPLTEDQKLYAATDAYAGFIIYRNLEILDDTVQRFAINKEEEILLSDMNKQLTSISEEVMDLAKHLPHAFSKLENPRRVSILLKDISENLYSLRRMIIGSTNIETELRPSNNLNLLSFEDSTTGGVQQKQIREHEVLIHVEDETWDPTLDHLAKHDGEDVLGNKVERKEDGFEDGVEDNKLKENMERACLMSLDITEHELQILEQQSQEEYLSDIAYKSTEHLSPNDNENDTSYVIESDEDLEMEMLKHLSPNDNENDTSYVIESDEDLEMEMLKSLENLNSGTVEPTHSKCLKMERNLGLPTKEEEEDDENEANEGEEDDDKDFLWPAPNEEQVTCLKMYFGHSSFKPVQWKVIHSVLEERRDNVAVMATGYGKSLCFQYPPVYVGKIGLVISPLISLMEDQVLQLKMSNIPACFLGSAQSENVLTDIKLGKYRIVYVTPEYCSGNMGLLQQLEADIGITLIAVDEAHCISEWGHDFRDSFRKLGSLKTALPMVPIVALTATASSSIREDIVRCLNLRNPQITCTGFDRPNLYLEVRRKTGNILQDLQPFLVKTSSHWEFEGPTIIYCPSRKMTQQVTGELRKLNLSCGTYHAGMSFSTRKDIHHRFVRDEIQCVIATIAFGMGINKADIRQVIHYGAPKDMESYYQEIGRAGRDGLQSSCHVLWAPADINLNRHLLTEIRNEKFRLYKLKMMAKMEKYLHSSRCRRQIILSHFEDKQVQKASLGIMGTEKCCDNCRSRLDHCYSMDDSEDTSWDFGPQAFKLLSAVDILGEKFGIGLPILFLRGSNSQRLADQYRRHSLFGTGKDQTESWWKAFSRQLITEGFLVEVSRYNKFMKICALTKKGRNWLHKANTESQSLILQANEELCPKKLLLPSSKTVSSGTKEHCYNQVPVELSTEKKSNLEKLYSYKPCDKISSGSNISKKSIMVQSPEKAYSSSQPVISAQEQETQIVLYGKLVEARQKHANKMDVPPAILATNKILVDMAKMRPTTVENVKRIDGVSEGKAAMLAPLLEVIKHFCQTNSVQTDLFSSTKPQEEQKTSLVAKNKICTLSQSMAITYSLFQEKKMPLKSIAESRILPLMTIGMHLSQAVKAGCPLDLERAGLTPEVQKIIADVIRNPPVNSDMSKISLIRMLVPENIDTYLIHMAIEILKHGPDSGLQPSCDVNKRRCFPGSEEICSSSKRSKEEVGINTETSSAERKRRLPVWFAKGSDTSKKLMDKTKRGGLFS

SMILES	IC50 [1] [nM]	IC50 [2] [nM]
CCc1c(N2CC[C@@H](C)N(C(=O)c3ncnc(C)c3O)CC2)c(=O)n2nc(-c3ccc4c(c3)COC4(C)C)nc2n1CC(=O)Nc1ccc(C(F)(F)F)cc1Cl [WO2025049746, Example 461]	45	50
CCc1c(N2CCN(C(=O)c3nc4n(c(=O)c3O)CCOC4)CC2)c(=O)n2nc(-c3ccc4c(c3)COC4(C)C)nc2n1CC(=O)Nc1ccc(C(F)(F)F)cc1Cl [WO2025049746, Example 462]	35.4	39.4
CCc1c(N2CCN(C(=O)c3nc4c(cc3O)CCOC4)CC2)c(=O)n2nc(-c3ccc4c(c3)COC4(C)C)nc2n1CC(=O)Nc1ccc(C(F)(F)F)cc1Cl [WO2025049746, Example 463]	70.5	84.8
CCc1c(N2CCN(C(=O)c3nc4c(cc3OCc3ccc(OC)cc3)COCC4)CC2)c(=O)n2nc(-c3ccc4c(c3)COC4(C)C)nc2n1CC(=O)Nc1ccc(C(F)(F)F)cc1Cl [WO2025049746, Example 464]	68	83.3
Cc1ncnc(C(=O)N2CCN(c3c4n(c5nc(-c6ccc7c(c6)COC7(C)C)nn5c3=O)[C@@H](C(=O)Nc3ccc(C(F)(F)F)cc3Cl)C[C@H]4C)[C@H]3CC[C@@H]32)c1O [WO2025049746, Example 465]	29.1	31.9
Cc1ncnc(C(=O)N2CCN(c3c4n(c5nc(-c6ccc7c(c6)COC7(C)C)nn5c3=O)[C@@H](C(=O)Nc3ccc(C(F)(F)F)cc3Cl)C[C@@H]4C)[C@H]3CC[C@@H]32)c1O [WO2025049746, Example 466]	> 29700	9390
Cc1ncnc(C(=O)N2CCN(c3c4n(c5nc(-c6ccc7c(c6)COC7(C)C)nn5c3=O)[C@H](C(=O)Nc3ccc(C(F)(F)F)cc3Cl)C[C@H]4C)[C@H]3CC[C@@H]32)c1O [WO2025049746, Example 467]	> 29700	9570

The remaining lines, values ahead:

IC50 [1] [nM]	IC50 [2] [nM]	SMILES
38.1	42.4	Cc1ncnc(C(=O)N2CCN(c3c4n(c5nc(-c6ccc7c(c6)COC7(C)C)nn5c3=O)[C@H](C(=O)Nc3ccc(C(F)(F)F)cc3Cl)C[C@@H]4C)[C@H]3CC[C@@H]32)c1O [WO2025049746, Example 468]
25.5	27.5	Cc1ncnc(C(=O)N2CCN(c3c4n(c5nc(-c6ccc7c(c6)COC7(C)C)nn5c3=O)[C@H](C(=O)Nc3ccc(C(F)(F)F)cc3Cl)C[C@H]4C)CC2)c1O [WO2025049746, Example 469]
32.4	34.6	Cc1ncnc(C(=O)N2CCN(c3c4n(c5nc(-c6ccc7c(c6)COC7(C)C)nn5c3=O)[C@@H](C(=O)Nc3ccc(C(F)(F)F)cc3Cl)C[C@H]4C)CC2)c1O [WO2025049746, Example 470]
1790	1810	Cc1ncnc(C(=O)N2CCN(c3c4n(c5nc(-c6ccc7c(c6)COC7(C)C)nn5c3=O)[C@H](C(=O)Nc3ccc(C(F)(F)F)cc3Cl)C[C@@H]4C)CC2)c1O [WO2025049746, Example 471]
3740	4940	Cc1ncnc(C(=O)N2CCN(c3c4n(c5nc(-c6ccc7c(c6)COC7(C)C)nn5c3=O)[C@@H](C(=O)Nc3ccc(C(F)(F)F)cc3Cl)C[C@@H]4C)CC2)c1O [WO2025049746, Example 472]
